From patent US7371741B2, “Estradiol derivatives and pharmaceutical compositions using same” (EntreMed, Inc., priority 2003, dated 2008)

What was measured:
PC3: prostate cancer = experiment: In vitro anti-proliferative activity, BrdU incorporation, PC3; assay type: cell-based; settings: PC3 cells, 50% inhibition of proliferation, BrdU incorporation into DNA
Method: (§1) Determination of in vitro anti-proliferative activity of substituted estradiol analogs: In vitro anti-proliferative or anti-mitogenic activity was determined using a commercially available cell-based assay in 96-well tissue culture plates with assessment of proliferation by evaluating DNA synthesis through incorporation into DNA of immuno-reactive (BrdU) nucleotides. The cell types used are commercially available (MDA-MB-231: breast cancer; U87-MG: glioblastoma; PC3: prostate cancer; HUVEC: non-transformed early passage human umbilical vein endothelial cells). These assays, and the many assay variations possible to determine in vitro anti-proliferative or anti-mitogenic activity, are well known to those skilled in the art. The concentration which causes 50% inhibition of proliferation (IC50) was estimated from a dose-response curve generally carried out with a range of concentrations from ≧100 microg/mL to ≦0.01 microg/mL.

[1] = system: HUVEC: non-transformed early passage human umbilical vein endothelial cells; experiment: In vitro anti-proliferative activity, BrdU incorporation, HUVEC; assay type: cell-based; settings: 50% inhibition of proliferation, BrdU incorporation into DNA
Method: as §1

[2] = system: MDA-MB-231: breast cancer; experiment: In vitro anti-proliferative activity, BrdU incorporation, MDA-MB-231; assay type: cell-based; settings: MDA-MB-231 cells, 50% inhibition of proliferation, BrdU incorporation into DNA
Method: as §1

[3] = system: chick embryo chorioallantoic membrane; experiment: Chick embryo chorioallantoic membrane (CAM) assay; assay type: in vivo; settings: 100 μg methylcellulose disk, after 48 hours
Source text: Anti-proliferative activity can be evaluated in situ by testing the ability of an improved estradiol derivative to inhibit the proliferation of new blood vessel cells (angiogenesis). A suitable assay is the chick embryo chorioallantoic membrane (CAM) assay described by Crum et al. Science 230:1375 (1985). See also, U.S. Pat. No. 5,001,116, hereby incorporated by reference, which describes the CAM assay. Briefly, fertilized chick embryos are removed from their shell on day 3 or 4, and a methylcellulose disc containing the drug is implanted on the chorioallantoic membrane. The embryos are examined 48 hours later and, if a clear avascular zone appears around the methylcellulose disc, the diameter of that zone is measured.

U87-MG: glioblastoma = experiment: In vitro anti-proliferative activity, BrdU incorporation, U87-MG; assay type: cell-based; settings: U87-MG cells, 50% inhibition of proliferation, BrdU incorporation into DNA
Method: as §1

Row | SMILES | IC50 (PC3: prostate cancer; Homo sapiens, PC-3) [nM] | IC50 ([1]; Homo sapiens) [nM] | IC50 ([2]; Homo sapiens) [nM] | inhibition of cell mitosis and growth of new blood vessels (CAM) [3] | IC50 (U87-MG: glioblastoma; Homo sapiens, U-87 MG) [nM] | IC50 (PC3: prostate cancer) [nM] | IC50 (U87-MG: glioblastoma) [nM] | IC50 [1] [nM] | IC50 [2] [nM]
1 | COc1cc2c(cc1O)CC[C@@H]1[C@@H]2CC[C@]2(C)[C@@H](O)CC[C@@H]12 [Compound 1, 2-methoxyestradiol, reference compound] | 1080 ± 500 | 680 ± 150 | 690 ± 140 | inhibit cell mitosis and the growth of new blood vessels |  |  |  |  | 
2 | COc1cc2c(cc1O)CC[C@@H]1[C@@H]2CC[C@]2(C)CCC[C@@H]12 [Compound 7, 2-methoxyestra-1,3,5(10)-triene-3-ol] | 8490 ± 2490 | 1320 ± 560 | 2200 ± 520 |  | 7350 ± 430 |  |  |  | 
3 | CC=C1CC[C@H]2[C@@H]3CCc4cc(NC=O)c(OC)cc4[C@H]3CC[C@]12C [Compound 112, 3-formamide-17-ethylene-2-methoxyestra-1,3,5(10)-triene] |  |  |  |  |  | 740 ± 10 | 770 ± 60 | 580 | 560 ± 20
4 | C=Cc1cc2c(cc1OC)[C@H]1CC[C@]3(C)CCC[C@H]3[C@@H]1CC2 [Compound 52, 3-Vinyl-2-methoxyestra-1,3,5(10)-triene] | 2120 ± 640 | 580 ± 40 | 1860 ± 220 |  | 3140 ± 520 |  |  |  | 
5 | C=C1CC[C@H]2[C@@H]3CCc4cc(OS(N)(=O)=O)c(OC)cc4[C@H]3CC[C@]12C [Compound 70, 17-methylene-3-sulfamate-2-methoxyestra-1,3,5(10)-triene] |  |  |  |  |  | 910 ± 320 | 700 ± 60 | 580 ± 30 | 560 ± 20
6 | CCOc1cc2c(cc1NC=O)CC[C@@H]1[C@@H]2CC[C@]2(C)C(=O)CC[C@@H]12 [Compound 44A, 3-Formamide-2-ethoxyestra-1,3-5(10)-trien-17-one] |  |  |  |  |  | 27700 ± 620 | 21100 | 13200 ± 2200 | 24900 ± 5630
7 | C=C1CC[C@H]2[C@@H]3CCc4cc(NC=O)c(OCC)cc4[C@H]3CC[C@]12C [Compound 89, 3-formamide-17-methylene-2-ethoxyestra-1,3,5(10)-triene] |  |  |  |  |  | 1590 ± 190 | 7730 | 2100 ± 20 | 2410 ± 130
8 | COc1cc2c(cc1O)CC[C@@H]1[C@@H]2CC[C@]2(C)[C@@H](C)CC[C@@H]12 [Compound 16, 2-methoxy-17β-methylestra-1,3,5(10)-triene-3-ol] | 6460 ± 2310 | 2400 ± 450 | 3330 ± 230 |  | 9390 ± 430 |  |  |  | 
9 | CC#Cc1cc2c(cc1O)CCC1C2CC[C@@]2(C)C1CC[C@@H]2O (stereo partly shown) [Compound 3] | 2220 ± 130 | 520 ± 140 | 3990 ± 1120 |  | 2680 ± 220 |  |  |  | 
10 | COc1cc2c(cc1NC=O)CC[C@@H]1[C@@H]2CC[C@]2(C)C(=O)CC[C@@H]12 [Compound 43A, 3-formamide-2-methoxyestra-1,3,5(10)-triene-17-one] |  |  |  |  |  | 610 ± 270 | 940 ± 90 | 530 ± 220 | 1220 ± 600
11 | COc1cc2c(cc1C(=O)O)CC[C@@H]1[C@@H]2CC[C@]2(C)C(=O)CC[C@@H]12 [Compound 28, 2-methoxy-3-(carboxylic acid)estra-1,3,5(10)-triene-17-one] |  |  |  |  |  | > 100000 | > 100000 | > 100000 | > 100000
12 | COc1cc2c(cc1N)CC[C@@H]1[C@@H]2CC[C@]2(C)CCC[C@@H]12 [Compound 61, 3-amino-2-methoxyestra-1,3,5(10)-triene] | 8630 ± 180 | 6430 ± 1320 | 7620 ± 430 |  | 10200 ± 3780 |  |  |  | 
13 | C=Cc1cc2c(cc1OC)[C@H]1CC[C@]3(C)C(=O)CC[C@H]3[C@@H]1CC2 [Compound 25, 2-methoxy-3-(vinyl)estra-1,3,5(10)-triene-17-one] | 1430 ± 400 | 580 ± 10 | 2570 ± 290 |  | 2200 ± 60 |  |  |  | 
